This note sets out measurements from PubChem BioAssay (NCI).

Among the test systems are UACC-257 melanoma; NCI-H460 lung; RXF 393 renal; MDA-MB-231 breast; TK-10 renal; LOX IMVI melanoma; ACHN renal; COLO 205 colon; SNB-19 CNS; MALME-3M melanoma.
Holding throughout (assay): NCI tumour cell line growth inhibition, 48 h

Where “and” joins values, the source holds several entries; their conditions need not be identical. Equal entries are not always repeated.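 Growth conditions: 96-well plates. Treatment: test compound, 48 hours, 5 concentrations. Analysis: linear interpolation between bracketing concentrations; unreached endpoints set to highest concentration. GI50 = concentration required for 50% inhibition of growth. TGI: concentration producing complete growth inhibition.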 Some results are limits rather than exact numbers.

Regarding `CCCC(=O)O[C@]1(C)CC[C@@H]2[C@H]3[C@@H]1[C@@H]1C/C(C)=C\CC[C@](C)(OC(=O)[C@@H]2C)[C@H]3O1`, the GI50 in the assay on UACC-257 melanoma is 43.3 µM; in the assay with NCI-H460 lung, 22.5 µM; with RXF 393 renal, more than 100 µM; in the assay on MDA-MB-231 breast, 25.5 µM; in the assay with TK-10 renal, 86.9 µM; in the assay with LOX IMVI melanoma, 24.6 µM. Also, the GI50 in the assay with ACHN renal is 36.2 µM; in the assay with COLO 205 colon, 43.2 µM; with SNB-19 CNS, more than 100 µM; in the assay with MALME-3M melanoma, 61.1 µM. Further, the TGI in the assay on UACC-257 melanoma was more than 100 µM; with NCI-H460 lung, 69.8 µM; in the assay with RXF 393 renal, more than 100 µM; in the assay with MDA-MB-231 breast, 94.4 µM; in the assay on TK-10 renal, more than 100 µM; in the assay with LOX IMVI melanoma it was 59.9 µM. Besides, the TGI with ACHN renal, with COLO 205 colon, in the assay on SNB-19 CNS and in the assay with MALME-3M melanoma was more than 100 µM each time.
For the molecule `CC1=C/C(O)CC(=O)Cc2nc(co2)C(=O)N2CCC=C2C(=O)OC(C(C)C)C(C)/C=C\C(=O)NC/C=C\1` (stereo not drawn), the GI50 with UACC-257 melanoma was 12.6 µM; in the assay on NCI-H460 lung it was 17.8 µM; in the assay on RXF 393 renal, 27.8 µM; in the assay on MDA-MB-231 breast, 27.1 µM; in the assay on TK-10 renal, more than 100 µM; in the assay on LOX IMVI melanoma, 12.9 µM. The GI50 with ACHN renal was 31.8 µM; in the assay with COLO 205 colon, 3.09 µM; with SNB-19 CNS it was 18.1 µM; in the assay on MALME-3M melanoma it was 23.1 µM. Also, the TGI with UACC-257 melanoma was 35.5 µM and > 100 µM; in the assay with NCI-H460 lung it was 58 µM and > 100 µM; with RXF 393 renal, more than 100 µM; in the assay on MDA-MB-231 breast, > 71.4 µM and 61.4 µM; in the assay on TK-10 renal, > 100 µM and 96.1 µM; in the assay with LOX IMVI melanoma it was 34.7 µM and 36.1 µM. Further, the TGI was > 100 µM and 29.7 µM in the assay on ACHN renal; 15 µM and 38.9 µM in the assay with COLO 205 colon; 40.3 µM and > 100 µM with SNB-19 CNS; > 65.9 µM and 25.2 µM in the assay with MALME-3M melanoma.
For `CN(C)CCCN1c2ccc(O)cc2Sc2ccc(Cl)cc21`, the TGI in the assay on UACC-257 melanoma turned out to be 4.14 µM; with NCI-H460 lung, 14.5 µM; in the assay with RXF 393 renal, 32.6 µM; with MDA-MB-231 breast it was 23.6 µM; with TK-10 renal it was 24.9 µM; in the assay on LOX IMVI melanoma, 20.2 µM. For the same molecule, the TGI in the assay with ACHN renal came out at 28.1 µM; in the assay with COLO 205 colon, 39.3 µM; with SNB-19 CNS it was 27.6 µM; in the assay on MALME-3M melanoma, 24 µM.
With `Cc1ccc(NC(=O)N2CCCCC2)cc1[N+](=O)[O-]`, the GI50 with UACC-257 melanoma, in the assay with NCI-H460 lung, in the assay with RXF 393 renal, in the assay with MDA-MB-231 breast, in the assay with TK-10 renal and in the assay with LOX IMVI melanoma was more than 100 µM throughout. Further, the GI50 in the assay on ACHN renal, with COLO 205 colon, with SNB-19 CNS and in the assay on MALME-3M melanoma was more than 100 µM in each case. Moreover, the TGI in the assay with UACC-257 melanoma, with NCI-H460 lung, with RXF 393 renal, with MDA-MB-231 breast, in the assay with TK-10 renal and with LOX IMVI melanoma was more than 100 µM throughout. Moreover, the TGI in the assay on ACHN renal, with COLO 205 colon, with SNB-19 CNS and in the assay on MALME-3M melanoma was more than 100 µM throughout.
As for `O=C(O)c1nnsc1-c1csnn1`, the TGI with UACC-257 melanoma, with NCI-H460 lung, with RXF 393 renal, in the assay on MDA-MB-231 breast, with TK-10 renal and in the assay with LOX IMVI melanoma was more than 100 µM throughout. Further, the TGI in the assay with ACHN renal, in the assay on COLO 205 colon, in the assay with SNB-19 CNS and in the assay on MALME-3M melanoma was more than 100 µM each time.
On to `O=C(NCCNC(=O)c1ccc(F)cc1)Nc1ccc(-n2cc(-c3ccncc3)c(-c3ccc(Cl)c(O)c3)n2)cc1`, for which the GI50 in the assay with UACC-257 melanoma is 1.37 µM; with NCI-H460 lung it was 0.329 µM; with RXF 393 renal, 0.288 µM; in the assay on MDA-MB-231 breast it was 0.438 µM; with TK-10 renal, 2.49 µM; with LOX IMVI melanoma it was 0.425 µM. The results for the GI50 with ACHN renal, with SNB-19 CNS and in the assay with MALME-3M melanoma were 2.32 µM, 0.73 µM and 0.714 µM, respectively. Also, the TGI in the assay with UACC-257 melanoma came to 5.89 µM; in the assay on NCI-H460 lung it was 10.5 µM; in the assay on RXF 393 renal it was 3.69 µM; with MDA-MB-231 breast it was 2.26 µM; in the assay with LOX IMVI melanoma it was 2.49 µM; in the assay with ACHN renal it was 9.64 µM. Also, the TGI with SNB-19 CNS is more than 100 µM; with MALME-3M melanoma, 2.43 µM.
With `CCOc1ccc2c(c1)C(=O)c1c-2n(CCCN)c(=O)c2cc([N+](=O)[O-])ccc12`, the GI50 is 1.19 µM in the assay with UACC-257 melanoma; 0.499 µM in the assay with RXF 393 renal; 1.81 µM in the assay on MDA-MB-231 breast; 1.27 µM with TK-10 renal; 0.0144 µM in the assay with LOX IMVI melanoma; 0.0101 µM with ACHN renal. Moreover, the GI50 was 0.361 µM with COLO 205 colon, 0.0346 µM in the assay on SNB-19 CNS and 0.574 µM in the assay on MALME-3M melanoma. In addition, the TGI was found to be 2.44 µM in the assay with UACC-257 melanoma; 1.96 µM with RXF 393 renal; 3.43 µM with MDA-MB-231 breast; 2.78 µM in the assay with TK-10 renal; 1.15 µM in the assay with LOX IMVI melanoma; 1.17 µM in the assay on ACHN renal. Also, the TGI was 2.11 µM with COLO 205 colon, 1.48 µM in the assay on SNB-19 CNS and 2.37 µM in the assay with MALME-3M melanoma.
Consider `C[C@@H]1CC[C@@H]2[C@@H]1[C@H](OC(=O)c1ccc3ccccc3c1)[C@]1(C3CCCCC3)C[C@@H](OC(=O)CO)[C@@]2(C)O1`, for which the GI50 with UACC-257 melanoma was 12.9 µM; with NCI-H460 lung it was 9.27 µM; with RXF 393 renal, 0.0702 µM; in the assay on MDA-MB-231 breast, 13.6 µM; in the assay on TK-10 renal it was 14.5 µM; with LOX IMVI melanoma it was 13.1 µM. Further, the GI50 is 11.2 µM with COLO 205 colon, 14.6 µM in the assay with SNB-19 CNS and 16.5 µM in the assay with MALME-3M melanoma. The TGI with UACC-257 melanoma amounted to 26.3 µM; with NCI-H460 lung it was 23.7 µM; in the assay with RXF 393 renal it was 8.25 µM; in the assay on MDA-MB-231 breast it was 29.3 µM; with TK-10 renal, 31.1 µM; in the assay with LOX IMVI melanoma, 28.1 µM. Besides, the TGI with COLO 205 colon came to 24.6 µM; with SNB-19 CNS, 28.8 µM; in the assay on MALME-3M melanoma, 32.3 µM.
